Test results published in EP1370276B1, “INTERCELLULAR COMMUNICATION FACILITATING COMPOUNDS AND THEIR MEDICAL USE” (Zealand Pharma A/S, priority 2001, dated 2002).

Experiments:
human osteoblastic cells = assay: DDT-induced uncoupling, Lucifer Yellow dye transfer in human osteoblastic cells; format: cell-based; settings: 10^-8 mol/l, 10 minutes, after DDT 13 µM for 60 minutes
Experimental: Human osteoblast cells: Cells were isolated from human bone marrow obtained by puncture of the posterior iliac spine of healthy volunteers (aged 20-36): 10-15 ml marrow material was collected in 15 ml PBS + Ca, Mg (Life Technologies, Cat.No. 14040) with 100 U/ml Heparin (Sigma, Cat.No. H-3149). The mononuclear fraction of the marrow was isolated on a Lymphoprep gradient (Nycomed Pharma, Cat.No. 1001967), by centrifugation at 2200 rpm for 30 min. After harvesting, the mononuclear fraction was washed once with culture medium and centrifuged at 1800 rpm for 10 min. Subsequently cells were counted and plated in culture medium at 8x10^6 cells/100 mm dish. hOB medium (all reagents obtained from Life Technologies): MEM w/o Phenol Red w/ Glutamax (Cat.No. 041-93013) supplemented with 10% heat inactivated fetal calf serum (Cat.No. 10106) and 0.1% Penicillin/Streptomycin (Cat.No. 15140). Medium was changed the following day and the cells were cultured at 37°C in 5%CO2 with medium change every 7 days. After 3-4 weeks of culture the cells had reached 70% confluence. The medium was then supplemented with 100 nM Dexamethasone (Sigma, Cat.No. D-4902) for 7 days. Cells were then plated for video imaging experiments: a 25 mm #1 glass coverslip was placed in a 35 mm dish (or each well of a 6-well multidish), cells were plated at 2.5x10^5 cells/coverslip and cultured for 2-3 days before use. […]

ROS 17/2.8 cells = assay: Intercellular calcium waves after mechanical stimulation, ROS 17/2.8 cells; format: cell-based, rat; settings: 10^-8 M, 10 minutes, after 48 hours hypoxia 3-6% O2 (2.2 cells before)
Experimental: ROS 17/2.8 cells: Cells were cultured in 100 mm dishes at 37°C with 5% CO2 and medium change every 2-3 days. ROS medium (all reagents obtained from Life Technologies): MEM (Cat.No. 31095) supplemented with 10% heat-inactivated calf serum (Cat.No. 16170), 1% NEAA (Cat.No. 11140), 1% Sodium Pyruvate (Cat.No. 11360), 1% L-Glutamine (Cat.No. 25030) and 0.1% Penicillin/Streptomycin (Cat.No. 15140). For video imaging experiments, cells were plated on coverslips at 2-3×10^5 cells/coverslip and cultured for 2-3 days before use.
The cells cultured on coverslips were loaded with 5 µM fura-2-AM (Molecular Probes, Cat.No. F-1221), for 30 minutes at 37°C, and incubated in fresh medium for 20 minutes. Coverslips were then affixed to a PDMI-2 culture chamber (Medical Systems Corp.), maintained at 37°C with superfused CO2, on a Zeiss Axiovert microscope. Intercellular calcium waves were induced by mechanical stimulation of a single cell using a borosilicate glass micro pipette affixed to an Eppendorf 5171 micromanipulator. Imaging was performed using a MetaMorph imaging system (Universal Imaging). The excitation light (340 and 380 nm) was provided by a monochromator (T.I.L.L. Photonics GmbH). Images were acquired with an intensified CCD camera (Dage MTI) and digitized with a Matrox MVP image processing board.

[1] = tested on: ventricular reentry arrhytmias; assay: Ventricular reentry arrhythmias in dogs after coronary artery occlusion; format: in vivo; settings: after the lowest i.v. dose (bolus: 0.1 µg/kg; infusion: 2 ng/kg/min), after CAO
Experimental: Three dogs were studied in the anesthetized, open chest state to facilitate electrode placement for mapping. α-chloralose was given as a bolus (200 mg/kg) and then a constant Infusion at 8 mg/kg/hr (dissolved in polyethylene glycol, MW=200). The femoral vein and artery was cannulated for administration of fluid and drugs and for measurement of ascending aortic pressure, respectively.
The sinus node was clamped and the atrial appendage was paced with a programmable stimulator with constant current outputs at two times diastolic threshold. Pacing rate was ≥200 b/min to control heart rates. […] Late ventricular diastolic threshold was measured during each intervention; the pacing current was four times threshold.
Test sites were chosen along the shaft of 16 pole needles (J. Kassell, Fayetteville, NC); each pole completely surrounds the needle shaft to prevent directionality of needle orientation from recording of adjacent Purkinje strands. Six bipolar electrograms (1 mm spacing) were recorded sequentially down the shaft of the needle by amplifying up to 1000 times, filtering from 3-1300 Hz and recording via oscilloscope during atrial pacing. Four intramural electrograms are recorded on each multipolar needle. […] Inter-needle distance measured on epicardium varies over 6-10 mm in dogs weighing 12-16 kg. […]

human osteoblast = human osteoblast cultures and osteoblastic rat osteosarcoma cell lines; conference abstract; cited from earlier work
[2] = tested on: calcium-induced arrythmias; assay: Calcium-induced arrhythmia model in mice (time to 2nd degree AV-block); format: in vivo; settings: mouse, in vivo
Experimental: The antiarrhythmic effects of compounds of this invention were tested in an in vivo model of calcium-induced arrythmias according to the model of Lynch et al. ^[37]. […]. Commercial solutions of hypnorm and midazolam were diluted 1:1 in distilled water and one part diluted Hypnorm® is mixed with one part diluted midazolam.
The anaesthesia was induced by s.c. administration in a dose of […]. An i.v. cannula was inserted into the tail vein. The lead II ECG signal was recorded continuously by positioning of a stainless steel ECG electrodes on the right forelimb and on the left hind limb. The ground electrode was placed on the right hind limb. The signal was amplified (x 5.000-10.000) and filtered (0.1-150 Hz) via a Hugo Sachs Electronic model 689 ECG module. The analogue signal was digitised via a 12 bit data acquisition board (Data Translation model DT321) and sampled at 1000 Hz using the Notocord HEM 3.1 software for Windows NT. After a 10-min equilibration period, the test sample of drug was injected into the tail vein. Mice pre-treated with vehicle were tested as a measure of the control level in untreated animals. The injection volume was 100 µl in all experiments. Infusion of CaCl2 (30 mg/ml, 0.1 ml/min ≈ 100 mg/kg/min (calciumchlorid-2-hydrat, Riedel-de Haën, Germany)) was started 3 min after i.v. administration of drug or vehicle. The time lag to onset of 2nd degree AV-block was determined as the time from the start of CaCl2 infusion until the first arrhythmic event occured. An event of 2nd degree AV-block was defined as intermittent failure of the AV conduction characterised by a P-wave without the concomitant QRS complex.
Responses were expressed relative to the time until 2nd degree AV-block occurred in vehicle treated mice.

For “Ac-D-Tyr-D-Pro-D-4Hyp-Gly-D-Ala-Gly-NH2 [Compound 2]”, the “cell-to-cell dye transfer, median” value (human osteoblastic cells) was 8.3 cells, the “average number of cells in the calcium wave” value (ROS 17/2.8 cells) was 5.4 cells and the “inducibility of epicardial reentry VT” value [1] was “VT was no longer inducible”. The “hypoxia-induced decrease of dye transfer after Lucifer Yellow injections” value (human osteoblast) was “completely reversed” and the “CaCl2 mice Score” value [2] was 3.
